The text below walks through data of patent US8445510B2, “Fused bicyclic kinase inhibitors” (OSI Pharmaceuticals, LLC, priority 2011, dated 2013).

The subject of one assay is MKN45 cells. The experiment in a line: MKN45 cell proliferation assay (CellTiter-Glo). The class given is cell-based. The following applies: Homo sapiens, MKN-45, 72 h; MKN45 cell line; 3 days incubation; at least duplicate experiments; read-out: Prolif. IC50.
Another assay deals with T1, RON (Homo sapiens, UniProt Q04912).
T1 sequence (Q04912 913-1400): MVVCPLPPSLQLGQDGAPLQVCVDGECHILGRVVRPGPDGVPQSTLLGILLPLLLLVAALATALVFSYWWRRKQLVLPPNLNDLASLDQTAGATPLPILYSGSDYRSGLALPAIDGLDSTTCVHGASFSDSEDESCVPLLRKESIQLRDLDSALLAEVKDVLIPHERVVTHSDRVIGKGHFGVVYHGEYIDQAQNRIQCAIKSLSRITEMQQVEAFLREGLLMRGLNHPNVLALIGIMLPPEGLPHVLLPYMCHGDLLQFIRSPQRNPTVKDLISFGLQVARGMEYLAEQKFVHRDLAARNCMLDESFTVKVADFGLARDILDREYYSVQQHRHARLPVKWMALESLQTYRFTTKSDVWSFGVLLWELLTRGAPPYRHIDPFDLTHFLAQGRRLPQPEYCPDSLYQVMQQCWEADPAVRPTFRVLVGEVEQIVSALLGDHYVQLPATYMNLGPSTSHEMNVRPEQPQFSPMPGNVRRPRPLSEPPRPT
The experiment in a line: sfRON cell mechanistic assay (HeLa), phosphorylated RON ELISA. It counts as cell-based. The settings on record: HeLa cells transfected with sfRON; inhibition of phosphorylated RON; four hours incubation; at least duplicate experiments; read-out: sfRON mech IC50. The method, boiled down: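 HeLa cells transiently transfected with sfRON plasmid, then exposed 4 h at 37 °C to a 6-point compound series (typically 10 μM to 3 nM, 0.5% DMSO). Phospho-RON (pY1238/1239) in lysates measured by sandwich ELISA with luminescence. IC50 from 4-parameter fit of percent-of-DMSO-control data, at least duplicate runs.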

For `C[C@H](c1c(OC(F)F)ccc(F)c1Cl)c1c[nH]c2ncc(-c3cnc([C@H]4CC[C@H](O)CC4)n3C)cc12` [Example 126, trans-4-[5-(3-{(1S)-1-[2-Chloro-6-(difluoromethoxy)-3-fluorophenyl]ethyl}-1H-pyrrolo[2,3-b]pyridin-5-yl)-1-methyl-1H-imidazol-2-yl]cyclohexanol], the IC50 in the assay with MKN45 cells was no more than 0.05 µM; on RON it was no more than 0.2 µM.
Turning to `COc1ccc(F)c(Cl)c1[C@@H](C)c1c[nH]c2ncc(-c3cn(C)nc3OC)cc12` [Example 61, 3-[(1S)-1-(2-Chloro-3-fluoro-6-methoxyphenyl)ethyl]-5-(3-methoxy-1-methyl-1H-pyrazol-4-yl)-1H-pyrrolo[2,3-b]pyridine], the IC50 in the assay with MKN45 cells was no more than 0.05 µM; on RON, 0.2 to 1 µM.
For the compound `COc1ccc(F)c(Cl)c1[C@@H](C)c1c[nH]c2ncc(-c3cnn([C@H]4CC[C@H](O)CC4)c3Cl)cc12` [Example 49, trans-4-(5-Chloro-4-{3-[(1S)-1-(2-chloro-3-fluoro-6-methoxyphenyl)ethyl]-1H-pyrrolo[2,3-b]pyridin-5-yl}-1H-pyrazol-1-yl)cyclohexanol], the IC50 was no more than 0.05 µM with MKN45 cells and greater than 1 µM on RON.
Turning to `Cc1c(-c2cnc3[nH]cc([C@H](CF)c4c(OC(F)F)ccc(F)c4Cl)c3c2)cnn1[C@H]1CC[C@H](O)CC1` [Example 124, trans-4-[4-(3-{(1S)-1-[2-chloro-6-(difluoromethoxy)-3-fluorophenyl]-2-fluoroethyl}-1H-pyrrolo[2,3-b]pyridin-5-yl)-5-methyl-1H-pyrazol-1-yl]cyclohexanol], the IC50 is no more than 0.05 µM in the assay with MKN45 cells and no more than 0.2 µM on RON.
`COc1ccc(F)c(Cl)c1[C@@H](CF)c1c[nH]c2ncc(-c3cnn([C@H]4CC[C@H](O)CC4)c3C)cc12` [Example 121, trans-4-(4-{3-[(1S)-1-(2-Chloro-3-fluoro-6-methoxyphenyl)-2-fluoroethyl]-1H-pyrrolo[2,3-b]pyridin-5-yl}-5-methyl-1H-pyrazol-1-yl)cyclohexanol]: the IC50 in the assay with MKN45 cells was no more than 0.05 µM; at RON, 0.2 to 1 µM.
Taken in the same sequence, the figures for `COc1ccc(F)c(Cl)c1[C@@H](C)c1c[nH]c2ncc(-c3cnc(C)n3C)cc12` [Example 65, 3-[(1S)-1-(2-chloro-3-fluoro-6-methoxyphenyl)ethyl]-5-(1,2-dimethyl-1H-imidazol-5-yl)-1H-pyrrolo[2,3-b]pyridine] were 0.05 to 0.2 µM and greater than 1 µM.
On to `C[C@H](c1c(OC(F)F)ccc(F)c1Cl)c1c[nH]c2ncc(-c3cnn([C@H]4CC[C@H](O)CC4)c3F)cc12` [Example 84, trans-4-[4-(3-{(1S)-1-[2-Chloro-6-(difluoromethoxy)-3-fluorophenyl]ethyl}-1H-pyrrolo[2,3-b]pyridin-5-yl)-5-fluoro-1H-pyrazol-1-yl]cyclohexanol], for which the IC50 with MKN45 cells was no more than 0.05 µM; at RON, 0.2 to 1 µM.
Turning to `CNC(=O)[C@H]1CC[C@H](n2cc(-c3cnc4[nH]cc([C@H](C)c5c(OC)ccc(F)c5Cl)c4c3)c(C)n2)CC1` [Example 22, trans-4-(4-{3-[(1S)-1-(2-Chloro-3-fluoro-6-methoxyphenyl)ethyl]-1H-pyrrolo[2,3-b]pyridin-5-yl}-3-methyl-1H-pyrazol-1-yl)-N-methylcyclohexanecarboxamide], the IC50 in the assay with MKN45 cells was no more than 0.05 µM; at RON, no more than 0.2 µM.
Consider `CCOc1ccc(F)c(Cl)c1[C@@H](C)c1c[nH]c2ncc(-c3cnn([C@H]4CC[C@H](O)CC4)c3C)cc12` [Example 103, trans-4-(4-{3-[(1S)-1-(2-Chloro-6-ethoxy-3-fluorophenyl)ethyl]-1H-pyrrolo[2,3-b]pyridin-5-yl}-5-methyl-1H-pyrazol-1-yl)cyclohexanol], for which the IC50 in the assay on MKN45 cells was no more than 0.05 µM; at RON, no more than 0.2 µM.
Regarding `Cc1c(-c2cnc3[nH]cc([C@H](C)c4c(OC(C)C)ccc(F)c4Cl)c3c2)cnn1[C@H]1CC[C@H](O)CC1` [Example 104, trans-4-[4-(3-{(1S)-1-[2-Chloro-3-fluoro-6-(propan-2-yloxy)phenyl]ethyl}-1H-pyrrolo[2,3-b]pyridin-5-yl)-5-methyl-1H-pyrazol-1-yl]cyclohexanol], the IC50 in the assay on MKN45 cells was no more than 0.05 µM; at RON, 0.2 to 1 µM.
As for `C[C@H](c1c(OC(F)F)ccc(F)c1Cl)c1c[nH]c2ncc(-c3cnc(N4CCC(O)CC4)n3C)cc12` [Example 125, 1-[5-(3-{(1S)-1-[2-Chloro-6-(difluoromethoxy)-3-fluorophenyl]ethyl}-1H-pyrrolo[2,3-b]pyridin-5-yl)-1-methyl-1H-imidazol-2-yl]piperidin-4-ol], the results for the IC50 in the assay with MKN45 cells and at RON were no more than 0.05 µM and no more than 0.2 µM, respectively.
For `COc1ccc(F)c(Cl)c1[C@@H](C)c1c[nH]c2ncc(-c3cnn([C@H]4CC[C@H](O)CC4)c3C)cc12` [Example 27, trans-4-(4-{3-[(1S)-1-(2-Chloro-3-fluoro-6-methoxyphenyl)ethyl]-1H-pyrrolo[2,3-b]pyridin-5-yl}-5-methyl-1H-pyrazol-1-yl)cyclohexanol], the IC50 in the assay with MKN45 cells is no more than 0.05 µM; at RON, 0.2 to 1 µM.
On to `COc1ccc(F)c(Cl)c1[C@@H](C)c1c[nH]c2ncc(-c3c(C)nn([C@@H]4C[C@@H](O)[C@@H](O)C4)c3C)cc12` [Example 33, (1R,2S,4S)-4-(4-{3-[(1S)-1-(2-Chloro-3-fluoro-6-methoxyphenyl)ethyl]-1H-pyrrolo[2,3-b]pyridin-5-yl}-3,5-dimethyl-1H-pyrazol-1-yl)cyclopentane-1,2-diol], for which the IC50 in the assay with MKN45 cells was no more than 0.05 µM; on RON it was 0.2 to 1 µM.
On to `COc1ccc(F)c(Cl)c1[C@@H](C)c1c[nH]c2ncc(-c3cnn(C)c3N)cc12` [Example 38, 4-{3-[(1S)-1-(2-Chloro-3-fluoro-6-methoxyphenyl)ethyl]-1H-pyrrolo[2,3-b]pyridin-5-yl}-1-methyl-1H-pyrazol-5-amine], for which the IC50 in the assay on MKN45 cells was no more than 0.05 µM; on RON, 0.2 to 1 µM.
Taken in the same sequence, the figures for `COc1ccc(F)c(Cl)c1[C@@H](C)c1c[nH]c2ncc(-c3cn(CC(C)(C)O)nc3C)cc12` [Example 7, 1-(4-{3-[(1S)-1-(2-Chloro-3-fluoro-6-methoxyphenyl)ethyl]-1H-pyrrolo[2,3-b]pyridin-5-yl}-3-methyl-1H-pyrazol-1-yl)-2-methylpropan-2-ol] were no more than 0.05 µM and 0.2 to 1 µM.
Take `Cc1c(-c2cnc3[nH]cc([C@@H](CF)c4c(OC(F)F)ccc(F)c4Cl)c3c2)cnn1[C@H]1CC[C@H](O)CC1` [Example 123, trans-4-[4-(3-{(1R)-1-[2-chloro-6-(difluoromethoxy)-3-fluorophenyl]-2-fluoroethyl}-1H-pyrrolo[2,3-b]pyridin-5-yl)-5-methyl-1H-pyrazol-1-yl]cyclohexanol]: the IC50 with MKN45 cells and at RON was 0.2 to 1 µM in each case.
Regarding `COc1ccc(F)c(Cl)c1[C@@H](C)c1c[nH]c2ncc(-c3c[nH]nc3C)cc12` [Example 1, 3-[(1S)-1-(2-Chloro-3-fluoro-6-methoxyphenyl)ethyl]-5-(3-methyl-1H-pyrazol-4-yl)-1H-pyrrolo[2,3-b]pyridine], the IC50 with MKN45 cells was no more than 0.05 µM; on RON, 0.2 to 1 µM.
Turning to `COc1ccc(F)c(Cl)c1[C@@H](C)c1c[nH]c2ncc(-c3c(CO)nn(C)c3C)cc12` [Example 51, (4-{3-[(1S)-1-(2-Chloro-3-fluoro-6-methoxyphenyl)ethyl]-1H-pyrrolo[2,3-b]pyridin-5-yl}-1,5-dimethyl-1H-pyrazol-3-yl)methanol], the IC50 is 0.05 to 0.2 µM with MKN45 cells and greater than 1 µM at RON.

In general, IC50 refers to the midpoint of a concentration-inhibition curve.
